Measured values: PMC2605521 (Journal of medicinal chemistry, 2008)
“Also recorded” adds a separate entry of the source. Like-named read-outs stand apart in the source and are kept apart here.

Columns and labels:
κ receptors = κ receptors (Homo sapiens, UniProt P41145); test: [35S]GTP-γ-S functional assay, κ-antagonism; type: biochemical; settings: for κ-antagonist activity in the functional assay (in words): [35S]GTPγS assay
μ-receptors [1] = target: T1, μ-receptors (Homo sapiens, UniProt P35372); test: biochemical; type: biochemical
T1 sequence (P35372 whole entry, species assumed): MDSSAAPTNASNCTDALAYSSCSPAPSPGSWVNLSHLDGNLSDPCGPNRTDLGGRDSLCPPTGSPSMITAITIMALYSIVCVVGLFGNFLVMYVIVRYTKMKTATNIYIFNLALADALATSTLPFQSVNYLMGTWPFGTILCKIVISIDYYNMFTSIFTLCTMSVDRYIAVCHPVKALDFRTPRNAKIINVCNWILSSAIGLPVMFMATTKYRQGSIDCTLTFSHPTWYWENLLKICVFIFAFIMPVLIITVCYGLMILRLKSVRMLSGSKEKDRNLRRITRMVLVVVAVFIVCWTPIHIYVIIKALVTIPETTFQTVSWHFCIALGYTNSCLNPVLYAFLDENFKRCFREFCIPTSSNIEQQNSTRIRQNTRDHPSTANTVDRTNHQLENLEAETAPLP

δ receptors = δ receptors (Homo sapiens, UniProt P41143); test: [35S]GTP-γ-S functional assay, δ-antagonism; type: biochemical
δ receptors, sequence (P41143 whole entry): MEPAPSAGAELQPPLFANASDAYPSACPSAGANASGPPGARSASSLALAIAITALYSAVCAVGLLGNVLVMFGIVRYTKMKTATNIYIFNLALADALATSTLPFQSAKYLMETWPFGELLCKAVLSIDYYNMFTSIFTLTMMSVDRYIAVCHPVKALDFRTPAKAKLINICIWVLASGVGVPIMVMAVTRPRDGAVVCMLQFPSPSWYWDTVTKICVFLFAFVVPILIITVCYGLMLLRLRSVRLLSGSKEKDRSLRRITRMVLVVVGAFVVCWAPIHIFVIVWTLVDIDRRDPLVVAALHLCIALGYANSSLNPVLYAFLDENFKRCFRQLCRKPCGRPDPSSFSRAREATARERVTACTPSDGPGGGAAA

δ-opioid receptor = δ-opioid receptor (Homo sapiens, UniProt P41143); test: [125I]Ioxy binding, CHO cells expressing δ-opioid receptor
δ-opioid receptor, sequence (P41143 whole entry): as above

μ-opioid receptor [2] = target: T2, μ-opioid receptor (Homo sapiens, UniProt P35372); test: [125I]Ioxy binding, CHO cells expressing μ-opioid receptor; settings: for affinity for μ-receptors (in words): compared with the N-methyl analogues 46 and 47
T2 sequence (P35372 whole entry, species assumed): as the sequence (P35372 whole entry, species assumed) above

μ-receptors [3] = target: T1, μ-receptors; settings: [35S]GTPγS assay; cited from earlier work
μ-opioid receptor [4] = target: T2, μ-opioid receptor; settings: read-out: Ki at μ-receptors; earlier work; cited from earlier work
[5] = cited from earlier work

κ receptors, sequence (P41145 whole entry): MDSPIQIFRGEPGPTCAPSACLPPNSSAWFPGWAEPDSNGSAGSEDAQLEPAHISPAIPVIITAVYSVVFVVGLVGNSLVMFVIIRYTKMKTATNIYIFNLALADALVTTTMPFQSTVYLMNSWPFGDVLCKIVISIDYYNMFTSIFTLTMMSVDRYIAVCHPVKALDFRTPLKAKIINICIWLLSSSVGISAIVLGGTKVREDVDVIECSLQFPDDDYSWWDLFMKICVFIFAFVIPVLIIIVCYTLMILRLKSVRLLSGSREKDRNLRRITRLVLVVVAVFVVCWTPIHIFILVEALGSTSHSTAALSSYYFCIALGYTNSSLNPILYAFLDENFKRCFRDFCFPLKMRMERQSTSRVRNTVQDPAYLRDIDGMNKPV

Oc1ccc2c(c1)[C@@]13CCN(CCc4ccccc4)[C@@H](CC[C@H]1O2)C3 (racemic) [Compound 16, (4R*,6aS*,11bR*)-2,3,4,5,6,6a-Hexahydro-3-phenethyl-1H-4,11b-methanobenzofuro[3,2-d]azocine-10-ol]
Kb (κ receptors): 0.019 ± 0.0052 µM | κ-antagonist activity in the functional assay (in words) (κ receptors): moderately active κ-antagonists; also recorded: moderately potent κ-receptor antagonists | Kb (μ-receptors [1]): 0.26 ± 0.079 µM | Kb (δ receptors): 17 ± 4.2 µM

CN1CC[C@@]23C[C@@H]1CC[C@H]2Oc1c(O)cccc13 (racemic) [Compound 20, (4R*,6aS*,11bR*)-2,3,4,5,6,6a-Hexahydro-3-methyl-1H-4,11b-methanobenzofuro[3,2-d]azocine-8-ol]
Ki (δ-opioid receptor): > 10 µM

Oc1cccc2c1O[C@@H]1CC[C@H]3C[C@@]21CCN3CCc1ccccc1 (racemic) [Compound 24, (4R*,6aS*,11bR*)-2,3,4,5,6,6a-Hexahydro-3-phenethyl-1H-4,11b-methanobenzofuro[3,2-d]azocine-8-ol]
Kb (κ receptors): 0.021 ± 0.0034 µM | κ-antagonist activity in the functional assay (in words) (κ receptors): moderately active κ-antagonists; also recorded: moderately potent κ-receptor antagonists | Kb (μ-receptors [1]): 0.077 ± 0.013 µM | μ-antagonist activity in the functional assay (in words) (μ-receptors [1]): weak μ-antagonist activity | Kb (δ receptors): 8 ± 1.5 µM

CN1C[C@@H]2Oc3c(O)cccc3[C@@]23CCC[C@@H]1C3 (racemic) [Compound 46, (3R*,6aS*,11aR*)-1,3,4,5,6,11a-Hexahydro-2-methyl-2H-3,6a-methanobenzofuro[2,3-c]azocin-10-ol]
Ki (μ-opioid receptor [2]): 8 ± 0.406 µM

CN1C[C@@H]2Oc3ccc(O)cc3[C@@]23CCC[C@@H]1C3 (racemic) [Compound 47, (3R*,6aS*,11aR*)-1,3,4,5,6,11a-Hexahydro-2-methyl-2H-3,6a-methanobenzofuro [2,3-c]azocin-8-ol]
Ki (μ-opioid receptor [2]): 2.93 ± 0.203 µM

Oc1cccc2c1O[C@H]1CN(CCc3ccccc3)[C@@H]3CCC[C@]21C3 (racemic) [Compound 51, (3R*,6aS*,11aR*)-1,3,4,5,6,11a-Hexahydro-2-phenethyl-2H-3,6a-methanobenzofuro [2,3-c]azocin-10-ol]
affinity for μ-receptors (in words) (μ-opioid receptor [2]): only slight affinity

Oc1ccc2c(c1)[C@]13CCC[C@H](C1)N(CCc1ccccc1)C[C@@H]3O2 (relative stereo) [Compound 52]
affinity for μ-receptors (in words) (μ-opioid receptor [2]): only slight affinity

Oc1cccc2c1O[C@H]1[C@H]3CCC[C@@]21CCN3CCc1ccccc1 (single isomer, unassigned) [(−)-N-phenethyl ortho-f isomer]
potency as μ-opioid antagonist (in words) (μ-receptors [3]): more potent than naloxone | Ki (μ-opioid receptor [4]): 0.007 µM

Oc1cccc2c1O[C@H]1[C@@H]3CCC[C@]21CCN3CCc1ccccc1 (single isomer, unassigned) [(−)-N-phenethyl para-e isomer]
antinociceptive activity (in words) [5]: morphine-like antinociceptive
